Legend:
[1] = Hydrolysis resistance: same gel build-up test with test compound stored in a thermo-hygrostat; format: physicochemical; details: test compound allowed to stand in thermo-hygrostat (40° C., 80%) for 7 days, then same test as processing stability
Description: Using a test compound which was allowed to stand in a thermo-hygrostat (40° C., 80%) for 7 days, the same test was conducted and the hydrolytic stability of the compound was evaluated. The results are shown in Table 1 as "hydrolysis resistance".
The processing stability of the hydrolyzed compound is deteriorated. Therefore, the better the processing stability after treatment, the better the hydrolysis resistance becomes.

[2] = Dispersion properties: visual transparency of press-molded sheet; format: physicochemical; set-up: key: .circleincircle.: Good; .largecircle.: Slightly good; Δ: Slightly opaque; X: Opaque; details: pellets press-molded at 250° C., sheet of 1 mm thickness
Description: The resultant pellets were press-molded at 250° C. to obtain a sheet having a thickness of 1 mm, and transparency of this sheet was visually evaluated. The results are shown in Table 1 as "dispersion properties".
The better the transparency, the better the dispersion properties in the polymer become.
In Table 1, dispersion properties are indicated according to the following criteria.

[3] = Heat stability test of linear low-density polyethylene: processing stability (gel build-up time on kneading); details: 0.1 parts test compound per 100 parts LLDPE + 0.1 parts hydrotalcite; pellets extruded at 250° C., kneaded under nitrogen at 240° C., 100 rpm, laboplasto mill; time to maximum torque
Description: Heat stability test of linear low-density polyethylene
Using a 30 mm .phi. mono axial extruder, the above formulation was extruded into pellets at 250° C. The resultant pellets were kneaded under a nitrogen atmosphere at 240° C., 100 rpm, using a laboplasto mill, and the time required for a torque value due to crosslinking to reach a maximum value (gel build-up time, minute) was measured. The results are shown in Table 1 as "processing stability".
The longer the gel build-up time, the more crosslinking on kneading is inhibited and the better the processing stability becomes.

Structure (SMILES): Cc1cc(Cc2cc(C)cc(C(C)(C)C)c2OP2Oc3c(cc(C)cc3C(C)(C)C)Cc3cc(C)cc(C(C)(C)C)c3O2)c(O)c(C(C)(C)C)c1 [Compound P-4, 2-[2-(4,8-di-t-butyl-2,10-dimethyl-12H-dibenzo[d,g][1,3,2]dioxaphosphosin-6-yl)oxy-3-t-butyl-5-methylbenzyl]-6-t-butyl-4-methylphenol]
- Hydrolysis resistance (gel build-up time after treatment of the test compound) [1]: 15 min
- Dispersion properties (transparency of sheet, visually evaluated) [2]: .largecircle.
- Processing stability (gel build-up time) [3]: 15 min

Structure (SMILES): Cc1cc2c(c(C(C)(C)C)c1)OP(OCCOC(=O)CCc1cc(C)c(O)c(C(C)(C)C)c1)Oc1c(cc(C)cc1C(C)(C)C)C2 [Compound P-3, 2-[3-(3-t-butyl-4-hydroxy-5-methyphenyl)propionyloxy]ethyl 2,2'-methylenebis(6-t-butyl-4-methylphenyl)phosphite]
- Hydrolysis resistance (gel build-up time after treatment of the test compound) [1]: 16 min
- Dispersion properties (transparency of sheet, visually evaluated) [2]: .largecircle.
- Processing stability (gel build-up time) [3]: 16 min

Structure (SMILES): Cc1cc(CCC(=O)OCCOp2oc3c(C(C)(C)C)cc(C(C)(C)C)cc3c3cc(C(C)(C)C)cc(C(C)(C)C)c3o2)cc(C(C)(C)C)c1O [KA-1, 3-(3-t-butyl-4-hydroxy-5-methylphenyl)propionic acid 2-[(2,4,8,10-tetra-t-butyldibenzo[d,f][1,3,2]dioxaphosphepin-6-yl)oxy]ethyl]
- Hydrolysis resistance (gel build-up time after treatment of the test compound) [1]: 21 min
- Dispersion properties (transparency of sheet, visually evaluated) [2]: .circleincircle.
- Processing stability (gel build-up time) [3]: 21 min

Structure (SMILES): CC(C)(C)c1ccc(OP(Oc2ccc(C(C)(C)C)cc2C(C)(C)C)Oc2ccc(C(C)(C)C)cc2C(C)(C)C)c(C(C)(C)C)c1 [Compound P-2, tris(2,4-di-t-butylphenyl)phosphite]
- Hydrolysis resistance (gel build-up time after treatment of the test compound) [1]: 4 min
- Dispersion properties (transparency of sheet, visually evaluated) [2]: X
- Processing stability (gel build-up time) [3]: 7 min

Structure (SMILES): CC(C)(C)c1ccc(OP2OCC3(CO2)COP(Oc2ccc(C(C)(C)C)cc2C(C)(C)C)OC3)c(C(C)(C)C)c1 (stereo not drawn) [Compound P-1, bis(2,4-di-t-butylphenyl)pentaerythritol diphosphite]
- Hydrolysis resistance (gel build-up time after treatment of the test compound) [1]: 7 min
- Dispersion properties (transparency of sheet, visually evaluated) [2]: X
- Processing stability (gel build-up time) [3]: 7 min

Reference: patent US5843339A, “Phosphites and their production and use” (Sumitomo Chemical Company, Limited, priority 1995, dated 1998)
